Assay results reported in patent US20230381142A1, “ANTILEISHMANIAL COMPOUNDS, COMPOSITIONS AND USE THEREOF” (TRUSTEES OF BOSTON UNIVERSITY, priority 2022, published 2023).
Read-outs that look alike come from different tables or passages of the source.

How the values were obtained:
[1] = UCSD infection assay, host cell cytotoxicity (CC50); assay type: cell-based; details: mouse, B10R host cells infected with L. donovani
Method: (§1) Assay Conditions D: B10R cells (CVCL_0155) were seeded at 300 cells/well, and L. donovani WT promastigotes in stationary phase (7th day after passage) were added at 6,000 parasites/well (ratio of 20 parasites/cell). Both cells and parasites were seeded in DMEM High-Glucose medium (Gibco, cat. no. 11995065) containing 5% Fetal Bovine Serum (Sigma-Aldrich, cat. no. F2442) and 1% Penicillin-Streptomycin (Gibco, cat. no. 15140122). Cells and parasites were incubated in the presence of the compounds for 72 h at 37° C. and 5% C02. Plates were then fixed with 4% formaldehyde solution for at least 1 h, then washed with 1×PBS and stained with 5 μg/mL DAPI. Plates were read using an ImageXpress microscope (Molecular Devices) and analyzed by MetaXpress software (Molecular Devices) using a custom module optimized for this assay. […] Compounds were tested in a 10-point 2-fold serial dilution in 3 technical replicates, and 2 biological replicates. After 72 h, plates were fixed and stained with DAPI as described above. Images were acquired on an ImageXpress microscope, and analyzed using the MetaXpress custom module.
as §1, with “Compounds were obtained as 0.2 μmoles of dried film for primary single point screening. Each compound was diluted in DMSO to 10 μM final testing concentration. These compounds were tested in 2 biological replicates. The compounds were pre-spotted onto 384-well assay plates in single concentration.” for “Assay Conditions D:”, “CO2.” for “C02.”, “module. The DRCs were plotted, half-effective concentration (EC50) and half-cytotoxic concentration (CC50) were calculated using GraphPad Prism Software, version 6.05 (GraphPad Software, San Diego, CA).” for “module.”

[2] = system: L. donovani intracellular amastigotes in B10R cells; assay: UCSD L. donovani infection assay (Assay Conditions D); assay type: cell-based; details: B10R cells; for L. donovani amastigotes EC75 (B10R cells): footnote d; for EC50: Leishmania donovani, values marked d, read-out: L. donovani amastigotes EC50 (B10R cells)
Procedure, shortened: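 Compounds, either single-point at 10 μM or 10-point 2-fold series (3 technical, 2 biological replicates), were incubated 72 h at 37° C. with B10R host cells co-seeded with day-7 stationary L. donovani promastigotes (20:1). DAPI-stained nuclei imaging yielded intracellular parasite EC50 and host-cell CC50.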

[3] = GSK inMac assay, host cell toxicity readout (LD MAC); assay type: cell-based, human; details: human
Procedure, shortened: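 MAC EC50 reflects THP-1 host cell counts, measured within GSK's inMac L. donovani infection assay that also scores intracellular amastigotes and infected-cell percentage.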

[4] = system: L. donovani intracellular amastigotes infecting THP-1 macrophages; assay: GSK intramacrophage L. donovani assay (LD AMMAC, inMac; Assay Conditions C); assay type: cell-based; details: Leishmania donovani
Procedure, shortened: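 EC50 values come from counting amastigotes per infected THP-1 macrophage (AMMAC). Parallel read-outs give percentage of infected cells per well (INFCELL) and a macrophage-number toxicity EC50 (MAC).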

[5] = footnote c, read-out: THP-1 Host Cell CC50
[6] = THP-1 cells, values marked c, read-out: L. donovani amastigotes EC50 (THP-1 cells)

Cc1ccc(N2C(=O)c3[nH]nc(CC(C)C)c3C2c2ccc(Cl)cc2F)cn1 (stereo not drawn) [BUCMD00627]
CC50 at 72 h ([1]; host B10R cells): 10 µM | L. donovani amastigotes EC75 (μM, B10R cells) [2]: >10 µM

Cc1ccc(N2C(=O)c3[nH]nc(CC(C)C)c3C2c2ccccc2C)cn1 (stereo not drawn) [BUCMD00628]
CC50 at 72 h ([1]; host B10R cells): 15.8 µM | L. donovani amastigotes EC75 (μM, B10R cells) [2]: 3.2 µM

Cc1ccc(N2C(=O)c3[nH]nc(CC(C)C)c3C2c2ccccc2Cl)cn1 (stereo not drawn) [BUCMD00640]
CC50 at 72 h ([1]; host B10R cells): 12.6 µM | L. donovani amastigotes EC75 (μM, B10R cells) [2]: 3.4 µM

Cc1ccc(N2C(=O)c3[nH]nc(CC(C)C)c3C2c2ccc(Br)cc2F)cn1 (stereo not drawn) [BUCMD00641]
CC50 at 72 h ([1]; host B10R cells): 12.6 µM | L. donovani amastigotes EC75 (μM, B10R cells) [2]: >10 µM

Cc1ccc(N2C(=O)c3[nH]nc(CC(C)C)c3C2c2ccc(F)cc2Cl)cn1 (stereo not drawn) [BUCMD00642]
CC50 at 72 h ([1]; host B10R cells): 10 µM | L. donovani amastigotes EC75 (μM, B10R cells) [2]: 1.3 µM

COc1ccc(N2C(=O)c3[nH]nc(CC(C)C)c3C2c2ccccc2C)nc1 (stereo not drawn) [BUCMD00645]
CC50 at 72 h ([1]; host B10R cells): 20 µM | L. donovani amastigotes EC75 (μM, B10R cells) [2]: >10 µM

COc1ccc(N2C(=O)c3[nH]nc(CC(C)C)c3C2c2ccc(F)cc2C)nc1 (stereo not drawn) [BUCMD00646]
CC50 at 72 h ([1]; host B10R cells): 12.6 µM | L. donovani amastigotes EC75 (μM, B10R cells) [2]: >10 µM

COc1ccc(N2C(=O)c3[nH]nc(CC(C)C)c3C2c2ccccc2Cl)nc1 (stereo not drawn) [BUCMD00647]
CC50 at 72 h ([1]; host B10R cells): 10 µM | L. donovani amastigotes EC75 (μM, B10R cells) [2]: >10 µM

COc1ccc(N2C(=O)c3[nH]nc(CC(C)C)c3C2c2ccc(Br)cc2F)nc1 (stereo not drawn) [BUCMD00648]
CC50 at 72 h ([1]; host B10R cells): 3.98 µM | L. donovani amastigotes EC75 (μM, B10R cells) [2]: >10 µM

CC(C)Cc1n[nH]c2c1C(c1ccccc1C(F)(F)F)N(c1cncc(F)c1)C2=O (stereo not drawn) [BUCMD00699]
CC50 at 72 h ([1]; host B10R cells): 5.01 µM | L. donovani amastigotes EC75 (μM, B10R cells) [2]: 1.4 µM

CC(C)Cc1n[nH]c2c1C(c1ccccc1F)N(c1cncc(F)c1)C2=O (stereo not drawn) [BUCMD00700]
CC50 at 72 h ([1]; host B10R cells): 10 µM | L. donovani amastigotes EC75 (μM, B10R cells) [2]: 1.3 µM

CC(C)Cc1n[nH]c2c1C(c1ccc(F)cc1Cl)N(c1ccc(C(=O)N3CCCC3)cc1)C2=O (stereo not drawn) [BUCMD00711]
CC50 at 72 h ([1]; host B10R cells): 5.01 µM | L. donovani amastigotes EC75 (μM, B10R cells) [2]: >10 µM

CC(C)Cc1n[nH]c2c1C(c1ccc(Cl)cc1Cl)N(c1ccc(C(=O)N3CCCC3)cc1)C2=O (stereo not drawn) [BUCMD00712]
CC50 at 72 h ([1]; host B10R cells): 1.58 µM | L. donovani amastigotes EC75 (μM, B10R cells) [2]: >10 µM

Cc1ccccc1C1c2c(CC(C)C)n[nH]c2C(=O)N1c1ccc(C(=O)N2CCCC2)cc1 (stereo not drawn) [BUCMD00713]
CC50 at 72 h ([1]; host B10R cells): 10 µM | L. donovani amastigotes EC75 (μM, B10R cells) [2]: >10 µM

CC(C)Cc1n[nH]c2c1C(c1ccc(F)cc1F)N(c1ccc(C(=O)N3CCCC3)cc1)C2=O (stereo not drawn) [BUCMD00714]
CC50 at 72 h ([1]; host B10R cells): 10 µM | L. donovani amastigotes EC75 (μM, B10R cells) [2]: >10 µM

Cc1cc(F)ccc1C1c2c(CC(C)C)n[nH]c2C(=O)N1c1ccc(N2CCN(C)CC2)nc1 (stereo not drawn) [BUCMD00717]
CC50 at 72 h ([1]; host B10R cells): 7.94 µM | L. donovani amastigotes EC75 (μM, B10R cells) [2]: 1.0 µM

CC(C)Cc1n[nH]c2c1C(c1ccc(F)cc1Cl)N(c1ccc(N3CCN(C)CC3)nc1)C2=O (stereo not drawn) [BUCMD00718]
CC50 at 72 h ([1]; host B10R cells): 6.31 µM | L. donovani amastigotes EC75 (μM, B10R cells) [2]: 1.0 µM

CC(C)Cc1n[nH]c2c1C(c1ccc(Cl)cc1Cl)N(c1ccc(N3CCN(C)CC3)nc1)C2=O (stereo not drawn) [BUCMD00719]
CC50 at 72 h ([1]; host B10R cells): 2 µM | L. donovani amastigotes EC75 (μM, B10R cells) [2]: >10 µM

CC(C)Cc1n[nH]c2c1C(c1ccc(F)cc1F)N(c1ccc(N3CCN(C)CC3)nc1)C2=O (stereo not drawn) [BUCMD00722]
CC50 at 72 h ([1]; host B10R cells): 7.94 µM | L. donovani amastigotes EC75 (μM, B10R cells) [2]: >10 µM

CC(C)Cc1n[nH]c2c1C(c1ccccc1C(F)(F)F)N(c1ccc(N3CCN(C)CC3)nc1)C2=O (stereo not drawn) [BUCMD00723]
CC50 at 72 h ([1]; host B10R cells): 7.94 µM | L. donovani amastigotes EC75 (μM, B10R cells) [2]: 10.0 µM

CC(C)Cc1n[nH]c2c1C(c1ccccc1F)N(c1ccc(N3CCN(C)CC3)nc1)C2=O (stereo not drawn) [BUCMD00724]
CC50 at 72 h ([1]; host B10R cells): 6.31 µM | L. donovani amastigotes EC75 (μM, B10R cells) [2]: >10 µM

CC(C)Cc1n[nH]c2c1C(c1ccc(F)c(F)c1)N(c1ccc(N3CCN(C)CC3)nc1)C2=O (stereo not drawn) [BUCMD00725]
CC50 at 72 h ([1]; host B10R cells): 7.94 µM | L. donovani amastigotes EC75 (μM, B10R cells) [2]: >10 µM

COc1ncc(N2C(=O)c3[nH]nc(CC(C)C)c3C2c2ccc(F)cc2Cl)cc1F (stereo not drawn) [BUCMD00730]
CC50 at 72 h ([1]; footnote d): 10 µM | L. donovani amastigotes EC75 (B10R cells) [2]: 0.6 µM

C#CCCCCn1nc(CC(C)C)c2c1C(=O)N(c1ccc(OC)cc1)C2c1ccc(F)cc1 (stereo not drawn) [BUCMD00741]
CC50 at 72 h ([1]; host B10R cells): 10 µM | L. donovani amastigotes EC75 (μM, B10R cells) [2]: >10 µM

COc1ccc(N2C(=O)c3[nH]nc(CC(C)C)c3[C@@H]2c2cccc(C(F)(F)F)c2)cn1 [BUCMD00805]
CC50 at 72 h ([1]; footnote d): 6.31 µM | L. donovani amastigotes EC75 (B10R cells) [2]: 1.6 µM | CC50 [3, 5]: 25.1 µM | EC50 [4, 6]: 5 µM

CC(C)Cc1n[nH]c2c1C(c1ccccc1Cl)N(c1ccc(N(C)C)cc1)C2=O (stereo not drawn) [CMLD010920]
CC50 at 72 h ([1]; footnote d): 6.31 µM | L. donovani amastigotes EC75 (B10R cells) [2]: 0.3 µM | EC50 [2]: 0.3 µM | CC50 [3, 5]: 7.3 µM

COc1ccc(N2C(=O)c3[nH]nc(CC(C)C)c3[C@H]2c2ccccc2Br)cn1 [CMLD010977]
CC50 at 72 h ([1]; host B10R cells): 15.8 µM | L. donovani amastigotes EC75 (μM, B10R cells) [2]: 1.0 µM | CC50 ([3]; host THP-1 cells): 25.1 µM | EC50 ([4]; values marked c: THP-1 cells, read-out: L. donovani amastigotes EC50 (μM, THP-1 or B10R cells)): 2 µM

CC(C)Cc1n[nH]c2c1C(c1ccc(F)cc1)N(c1ccc(N(C)C)cc1)C2=O (stereo not drawn) [CMLD011039]
CC50 at 72 h ([1]; footnote d): 6.31 µM | L. donovani amastigotes EC75 (B10R cells) [2]: 0.3 µM | CC50 [3, 5]: 39.8 µM | EC50 [4, 6]: 1 µM

COc1ccccc1C1c2c(CC(C)C)n[nH]c2C(=O)N1c1ccc(Br)cc1 (stereo not drawn) [CMLD011549]
CC50 at 72 h ([1]; footnote d): 1 µM | L. donovani amastigotes EC75 (B10R cells) [2]: 0.3 µM | EC50 [2]: 0.2 µM | CC50 [3, 5]: 1.1 µM

CC(C)Cc1n[nH]c2c1C(c1ccccc1Br)N(c1ccc(Br)cc1)C2=O (stereo not drawn) [CMLD011551]
CC50 at 72 h ([1]; footnote d): 6.31 µM | L. donovani amastigotes EC75 (B10R cells) [2]: 0.5 µM | EC50 [2]: 0.4 µM | CC50 [3, 5]: 5 µM

COc1ccc(N2C(=O)c3[nH]nc(CC(C)C)c3C2c2ccccc2OC)cc1F (stereo not drawn) [CMLD011566]
CC50 at 72 h ([1]; footnote d): 0.316 µM | L. donovani amastigotes EC75 (B10R cells) [2]: 0.4 µM | EC50 [2]: 0.4 µM | CC50 [3, 5]: 0.3 µM

COc1ccc(N2C(=O)c3[nH]nc(CC(C)C)c3C2c2ccccc2OC)cn1 (stereo not drawn) [CMLD011567]
CC50 at 72 h ([1]; footnote d): 20 µM | L. donovani amastigotes EC75 (B10R cells) [2]: 1.2 µM | EC50 [2]: 1.1 µM | CC50 [3, 5]: > 20 µM

COc1ccc(N2C(=O)c3[nH]nc(CC(C)C)c3C2c2ccccc2Br)cc1F (stereo not drawn) [CMLD012217]
CC50 at 72 h ([1]; footnote d): 3.98 µM | L. donovani amastigotes EC75 (B10R cells) [2]: 0.5 µM | EC50 [2]: 0.4 µM | CC50 [3, 5]: 3 µM
